Measurements as given in PubChem BioAssay (NCI).
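A five-concentration, 48-hour dose response in 96-well plates underlies each endpoint, interpolated linearly between surrounding concentrations. At the TGI there is no net growth.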

Tests used:
Assay in all cases: DTP human tumour cell line panel, 48 h
EKVX NSCLC = tested on: EKVX NSCLC
NCI-H460 lung = tested on: NCI-H460 lung
OVCAR-8 ovarian = tested on: OVCAR-8 ovarian
U251 CNS = tested on: U251 CNS
MDA-N = tested on: MDA-N
PC-3 prostate = tested on: PC-3 prostate
HOP-62 NSCLC = tested on: HOP-62 NSCLC
UACC-62 melanoma = tested on: UACC-62 melanoma
SNB-75 CNS = tested on: SNB-75 CNS
LOX IMVI melanoma = tested on: LOX IMVI melanoma
SK-MEL-28 melanoma = tested on: SK-MEL-28 melanoma
SNB-19 CNS = tested on: SNB-19 CNS
SF-539 CNS = tested on: SF-539 CNS
HL-60(TB) leukemia = tested on: HL-60(TB) leukemia
DU-145 prostate = tested on: DU-145 prostate
SR leukemia = tested on: SR leukemia
M14 melanoma = tested on: M14 melanoma
SF-295 CNS = tested on: SF-295 CNS
RPMI-8226 leukemia = tested on: RPMI-8226 leukemia
A549 NSCLC = tested on: A549 NSCLC
A498 renal = tested on: A498 renal
MALME-3M melanoma = tested on: MALME-3M melanoma
K-562 leukemia = tested on: K-562 leukemia
SK-MEL-5 melanoma = tested on: SK-MEL-5 melanoma
RXF 393 renal = tested on: RXF 393 renal
UO-31 renal = tested on: UO-31 renal
NCI-H23 lung = tested on: NCI-H23 lung
SK-OV-3 ovarian = tested on: SK-OV-3 ovarian
HT29 colon = tested on: HT29 colon
UACC-257 melanoma = tested on: UACC-257 melanoma
HCT-15 colon = tested on: HCT-15 colon
BT-549 breast = tested on: BT-549 breast
CCRF-CEM leukemia = tested on: CCRF-CEM leukemia
ACHN renal = tested on: ACHN renal
KM12 colon = tested on: KM12 colon
MDA-MB-435 = tested on: MDA-MB-435
HS 578T breast = tested on: HS 578T breast
MOLT-4 leukemia = tested on: MOLT-4 leukemia
MDA-MB-231 breast = tested on: MDA-MB-231 breast
HOP-92 NSCLC = tested on: HOP-92 NSCLC
IGROV1 ovarian = tested on: IGROV1 ovarian
OVCAR-5 ovarian = tested on: OVCAR-5 ovarian
HCT-116 colon = tested on: HCT-116 colon
MCF7 breast = tested on: MCF7 breast
SN12C renal = tested on: SN12C renal
OVCAR-3 ovarian = tested on: OVCAR-3 ovarian
SK-MEL-2 melanoma = tested on: SK-MEL-2 melanoma
T-47D breast = tested on: T-47D breast
SW-620 colon = tested on: SW-620 colon
NCI-H226 lung = tested on: NCI-H226 lung
HCC-2998 colon = tested on: HCC-2998 colon
SF-268 CNS = tested on: SF-268 CNS
TK-10 renal = tested on: TK-10 renal
786-0 renal = tested on: 786-0 renal
NCI/ADR-RES ovarian = tested on: NCI/ADR-RES ovarian
OVCAR-4 ovarian = tested on: OVCAR-4 ovarian
CAKI-1 renal = tested on: CAKI-1 renal
COLO 205 colon = tested on: COLO 205 colon

## CC1CCC2C(C(=O)O[C@H]3C4CCO[C@@H](OC5OC(CO)C(O)C(O)C5O)C4[C@@]4(CO)O[C@@H]34)=CO[C@@H](OC3OC(CO)C(O)C(O)C3O)C12 (stereo not given in full)
EKVX NSCLC
  TGI: > 10 µM
NCI-H460 lung
  TGI: > 10 µM
OVCAR-8 ovarian
  TGI: > 10 µM
U251 CNS
  TGI: > 10 µM
MDA-N
  TGI: > 10 µM
PC-3 prostate
  TGI: > 10 µM
HOP-62 NSCLC
  TGI: > 10 µM
UACC-62 melanoma
  TGI: > 10 µM
SNB-75 CNS
  TGI: > 10 µM
LOX IMVI melanoma
  TGI: > 10 µM
SK-MEL-28 melanoma
  TGI: > 10 µM
SNB-19 CNS
  TGI: > 10 µM
SF-539 CNS
  TGI: > 10 µM
HL-60(TB) leukemia
  TGI: > 10 µM
DU-145 prostate
  TGI: > 10 µM
SR leukemia
  TGI: > 10 µM
M14 melanoma
  TGI: > 10 µM
SF-295 CNS
  TGI: > 10 µM
RPMI-8226 leukemia
  TGI: > 10 µM
A549 NSCLC
  TGI: > 10 µM
A498 renal
  TGI: > 10 µM
MALME-3M melanoma
  TGI: > 10 µM
K-562 leukemia
  TGI: > 10 µM
SK-MEL-5 melanoma
  TGI: > 10 µM
RXF 393 renal
  TGI: > 10 µM
UO-31 renal
  TGI: > 10 µM
NCI-H23 lung
  TGI: > 10 µM
SK-OV-3 ovarian
  TGI: > 10 µM
HT29 colon
  TGI: > 10 µM
UACC-257 melanoma
  TGI: > 10 µM
HCT-15 colon
  TGI: > 10 µM
BT-549 breast
  TGI: > 10 µM
CCRF-CEM leukemia
  TGI: > 10 µM
ACHN renal
  TGI: > 10 µM
KM12 colon
  TGI: > 10 µM
MDA-MB-435
  TGI: > 10 µM
HS 578T breast
  TGI: > 10 µM
MOLT-4 leukemia
  TGI: > 10 µM
MDA-MB-231 breast
  TGI: > 10 µM
HOP-92 NSCLC
  TGI: > 10 µM
IGROV1 ovarian
  TGI: > 10 µM
OVCAR-5 ovarian
  TGI: > 10 µM
HCT-116 colon
  TGI: > 10 µM
MCF7 breast
  TGI: > 10 µM
SN12C renal
  TGI: > 10 µM
OVCAR-3 ovarian
  TGI: > 10 µM
SK-MEL-2 melanoma
  TGI: > 10 µM
T-47D breast
  TGI: > 10 µM
SW-620 colon
  TGI: > 10 µM
NCI-H226 lung
  TGI: > 10 µM
HCC-2998 colon
  TGI: > 10 µM
SF-268 CNS
  TGI: > 10 µM
TK-10 renal
  TGI: > 10 µM
786-0 renal
  TGI: > 10 µM

## CCOC(=O)C1=c2[nH]c3cccc4cccc(c43)n2C=C(C(C)=O)C1CC(C)=O (stereo not given)
EKVX NSCLC
  TGI: > 100 µM
NCI-H460 lung
  TGI: > 100 µM
OVCAR-8 ovarian
  TGI: > 100 µM
NCI/ADR-RES ovarian
  TGI: > 100 µM
U251 CNS
  TGI: > 100 µM
MDA-N
  TGI: > 100 µM
PC-3 prostate
  TGI: > 100 µM
HOP-62 NSCLC
  TGI: > 100 µM
UACC-62 melanoma
  TGI: > 100 µM
SNB-75 CNS
  TGI: > 100 µM
LOX IMVI melanoma
  TGI: > 100 µM
SK-MEL-28 melanoma
  TGI: > 100 µM
SNB-19 CNS
  TGI: > 100 µM
OVCAR-4 ovarian
  TGI: > 100 µM
HL-60(TB) leukemia
  TGI: 59.2 µM
DU-145 prostate
  TGI: > 100 µM
SR leukemia
  TGI: > 100 µM
M14 melanoma
  TGI: > 100 µM
SF-295 CNS
  TGI: > 100 µM
RPMI-8226 leukemia
  TGI: > 100 µM
A549 NSCLC
  TGI: > 100 µM
A498 renal
  TGI: > 100 µM
K-562 leukemia
  TGI: > 100 µM
SK-MEL-5 melanoma
  TGI: > 100 µM
RXF 393 renal
  TGI: > 100 µM
UO-31 renal
  TGI: > 100 µM
NCI-H23 lung
  TGI: > 100 µM
SK-OV-3 ovarian
  TGI: > 100 µM
CAKI-1 renal
  TGI: > 100 µM
UACC-257 melanoma
  TGI: > 100 µM
HCT-15 colon
  TGI: > 100 µM
BT-549 breast
  TGI: > 100 µM
CCRF-CEM leukemia
  TGI: > 100 µM
ACHN renal
  TGI: > 100 µM
KM12 colon
  TGI: > 100 µM
MDA-MB-435
  TGI: > 100 µM
MOLT-4 leukemia
  TGI: > 100 µM
HOP-92 NSCLC
  TGI: > 100 µM
IGROV1 ovarian
  TGI: > 100 µM
OVCAR-5 ovarian
  TGI: > 100 µM
HCT-116 colon
  TGI: > 100 µM
MCF7 breast
  TGI: > 100 µM
SN12C renal
  TGI: > 100 µM
OVCAR-3 ovarian
  TGI: > 100 µM
SK-MEL-2 melanoma
  TGI: > 100 µM
T-47D breast
  TGI: > 100 µM
SW-620 colon
  TGI: > 100 µM
HCC-2998 colon
  TGI: > 100 µM
COLO 205 colon
  TGI: > 100 µM
TK-10 renal
  TGI: > 100 µM
786-0 renal
  TGI: > 100 µM
